Data from patent US7550511B2, “Compositions that bind antiterminator RNA and assay for screening for such compositions” (Ahio University, priority 2001, dated 2009).

Test system: 9-(2-aminopurine)-RNA II versus 9-(2-aminopurine)-RNA IV (T-box antiterminator model RNAs)
Assay: Fluorescence assay, relative fluorescence ratio (RNA binding selectivity) at 1 mM ligand
Conditions: (F-Fo) RNA II / (F-Fo) RNA IV; <1.0 preferential binding for RNA IV, >1.0 for RNA II

Compound: NC(Cc1ccccc1)C(O)CO (stereo not shown) [Amino Alcohol 2, 3-amino-4-phenyl-butane-1,2-diol]
- relative fluorescence ratio (rounded): 0.4
